Measurements taken from US12569563B2, “Selective HDAC6 degraders and methods of use thereof” (DANA-FARBER CANCER INSTITUTE, INC., priority 2019, dated 2026).
pIC50: −log10 of the molar value.

Assays:
Type in all cases: biochemical
[1] = target: T1, HDAC6 (Homo sapiens, UniProt Q9UBN7); experiment: HDAC assay from Reaction Biology, fluorogenic substrate; parameters: purchased Reaction Biology; details: 10-dose response curve; read-out: Compound IC50 HDAC6
T1 sequence (Q9UBN7 1-1215): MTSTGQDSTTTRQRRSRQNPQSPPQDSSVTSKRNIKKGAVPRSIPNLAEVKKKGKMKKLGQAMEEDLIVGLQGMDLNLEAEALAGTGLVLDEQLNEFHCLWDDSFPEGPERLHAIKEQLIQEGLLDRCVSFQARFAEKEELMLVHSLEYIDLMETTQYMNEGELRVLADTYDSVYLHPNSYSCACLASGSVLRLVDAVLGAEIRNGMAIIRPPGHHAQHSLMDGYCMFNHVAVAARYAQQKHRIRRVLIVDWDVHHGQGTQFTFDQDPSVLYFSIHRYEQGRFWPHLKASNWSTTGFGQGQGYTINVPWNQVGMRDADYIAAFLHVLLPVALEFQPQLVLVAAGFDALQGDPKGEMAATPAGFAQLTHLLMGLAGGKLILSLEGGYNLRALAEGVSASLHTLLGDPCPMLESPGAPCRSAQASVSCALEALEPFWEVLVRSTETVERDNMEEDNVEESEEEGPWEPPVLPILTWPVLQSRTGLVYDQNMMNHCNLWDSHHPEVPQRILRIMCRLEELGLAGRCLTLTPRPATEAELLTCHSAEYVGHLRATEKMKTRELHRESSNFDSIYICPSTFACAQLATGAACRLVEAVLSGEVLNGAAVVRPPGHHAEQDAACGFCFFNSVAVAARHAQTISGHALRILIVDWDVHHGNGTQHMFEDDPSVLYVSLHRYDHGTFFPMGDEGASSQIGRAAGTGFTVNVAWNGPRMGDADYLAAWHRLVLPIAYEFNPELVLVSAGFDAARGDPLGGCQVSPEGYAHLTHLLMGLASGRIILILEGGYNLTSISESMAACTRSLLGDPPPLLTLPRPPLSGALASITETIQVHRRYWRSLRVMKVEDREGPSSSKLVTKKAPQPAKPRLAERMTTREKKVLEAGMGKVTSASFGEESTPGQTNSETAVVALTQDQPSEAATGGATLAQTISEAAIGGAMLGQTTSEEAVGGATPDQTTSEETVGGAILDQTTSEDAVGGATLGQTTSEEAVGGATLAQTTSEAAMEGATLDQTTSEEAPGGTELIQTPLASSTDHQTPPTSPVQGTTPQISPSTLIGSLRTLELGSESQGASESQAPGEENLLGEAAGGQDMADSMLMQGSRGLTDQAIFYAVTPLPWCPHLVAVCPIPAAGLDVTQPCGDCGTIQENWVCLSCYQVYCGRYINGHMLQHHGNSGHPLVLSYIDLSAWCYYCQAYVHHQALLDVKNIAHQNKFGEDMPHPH
Procedure: (§1) Compounds 1 and 3 were tested in a HDAC assay from Reaction Biology® against 10 different HDACs.
(§2) Base Reaction buffer: 50 mM Tris-HCl, pH8.0, 137 mM NaCl, 2.7 mM KCl, and 1 mM MgCl2,
(§3) Add fresh: 1 mg/ml BSA, 1% DMSO
(§4) Fluorogenic HDAC General Substrate (HDAC1, HDAC2, HDAC3, HDAC6, HDAC10, and HDAC11): 50 μM, Arg-His-Lys-Lys(Ac)-AMC
• (HDAC8 only substrate: 50 μM, Arg-His-Lys(Ac)-Lys(Ac))-AMC Class2A Substrate (HDAC4, HDAC5, HDAC7, and HDAC9): Boc-Lys(trifluoroacetyl)-AMC For SIRTs 1-3, general Class1 HDAC substrate and 500 μM NAD+ For SIRT5, Ac-Lys-succ and 500 μM NAD+ Reaction Procedure Deacetylation Step • 1. Delivered 2× enzyme in wells of reaction plate except in the control wells and added buffer to control wells. • 2. Delivered compounds in 100% DMSO into the enzyme mixture by Acoustic technology (Echo550; nanoliter range). Spin down and pre-incubation. • 3. Delivered 2× Substrate Mixture (Fluorogenic HDAC Substrate and co-factor if applicable) in all reaction wells to initiate the reaction. Spin and shake. • 4. Incubated for 30 min for Class 2A, 1 hr for HDAC1, 2, 3, and 6, and 2 hr for the rest of HDACs and SIRTs at 30° C. with seal. Development Step • 5. […] The fluorescence that was generated was detected with excitation (Ex) at […] and emission (Em) at 460 nM by the EnVision Multilabel Plate Reader (PerkinElmer®, Santa Clara, CA, USA). • 7. […]

[2] = target: T2, HDAC5 (Homo sapiens, UniProt Q9UQL6); experiment: HDAC assay from Reaction Biology, Class2A substrate; details: 10-dose response curve; read-out: Compound IC50 HDAC5
T2 construct: purchased Reaction Biology
Procedure: as §1, §2, §3
(§5) • (HDAC8 only substrate: 50 μM, Arg-His-Lys(Ac)-Lys(Ac))-AMC Class2A Substrate (HDAC4, HDAC5, HDAC7, and HDAC9): Boc-Lys(trifluoroacetyl)-AMC For SIRTs 1-3, general Class1 HDAC substrate and 500 μM NAD+ For SIRT5, Ac-Lys-succ and 500 μM NAD+ Reaction Procedure Deacetylation Step • 1. Delivered 2× enzyme in wells of reaction plate except in the control wells and added buffer to control wells. • 2. Delivered compounds in 100% DMSO into the enzyme mixture by Acoustic technology (Echo550; nanoliter range). Spin down and pre-incubation. • 3. Delivered 2× Substrate Mixture (Fluorogenic HDAC Substrate and co-factor if applicable) in all reaction wells to initiate the reaction. Spin and shake. • 4. Incubated for 30 min for Class 2A, 1 hr for HDAC1, 2, 3, and 6, and 2 hr for the rest of HDACs and SIRTs at 30° C. with seal. Development Step • 5. Added Developer with Trichostatin A (or Nicotinamide for SIRTs) to stop the reaction and to generate fluorescent color. • 6. The fluorescence that was generated was detected with excitation (Ex) at […] and emission (Em) at 460 nM by the EnVision Multilabel Plate Reader (PerkinElmer®, Santa Clara, CA, USA). • 7. […]

[3] = target: T3, HDAC8 (Homo sapiens, UniProt Q9BY41); experiment: HDAC assay from Reaction Biology, HDAC8 substrate; details: 10-dose response curve; read-out: Compound IC50 HDAC8
T3 construct: purchased Reaction Biology
T3 sequence (Q9BY41 1-377): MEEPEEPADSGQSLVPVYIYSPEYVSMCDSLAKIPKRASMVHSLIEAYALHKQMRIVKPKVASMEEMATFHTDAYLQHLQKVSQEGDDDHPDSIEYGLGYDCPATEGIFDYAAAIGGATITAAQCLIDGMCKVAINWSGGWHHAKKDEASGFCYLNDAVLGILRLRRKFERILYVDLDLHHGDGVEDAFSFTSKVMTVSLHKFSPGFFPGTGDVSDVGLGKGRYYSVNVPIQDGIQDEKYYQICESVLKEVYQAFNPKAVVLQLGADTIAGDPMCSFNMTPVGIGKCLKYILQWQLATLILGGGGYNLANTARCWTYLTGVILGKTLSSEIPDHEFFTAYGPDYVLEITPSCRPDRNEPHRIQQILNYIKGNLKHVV
Procedure: as §1, §2, §3, §5

[4] = target: T4, HDAC3 (Homo sapiens, UniProt O15379); experiment: HDAC assay from Reaction Biology, fluorogenic substrate; details: 10-dose response curve; read-out: Compound IC50 HDAC3
T4 construct: purchased Reaction Biology
Procedure: as §1, §2, §3, §4
(§6) • (HDAC8 only substrate: 50 μM, Arg-His-Lys(Ac)-Lys(Ac))-AMC Class2A Substrate (HDAC4, HDAC5, HDAC7, and HDAC9): Boc-Lys(trifluoroacetyl)-AMC For SIRTs 1-3, general Class1 HDAC substrate and 500 μM NAD+ For SIRT5, Ac-Lys-succ and 500 μM NAD+ Reaction Procedure Deacetylation Step • 1. Delivered 2× enzyme in wells of reaction plate except in the control wells and added buffer to control wells. • 2. Delivered compounds in 100% DMSO into the enzyme mixture by Acoustic technology (Echo550; nanoliter range). Spin down and pre-incubation. • 3. Delivered 2× Substrate Mixture (Fluorogenic HDAC Substrate and co-factor if applicable) in all reaction wells to initiate the reaction. Spin and shake. • 4. Incubated for 30 min for Class 2A, 1 hr for HDAC1, 2, 3, and 6, and 2 hr for the rest of HDACs and SIRTs at 30° C. with seal. Development Step • 5. Added Developer with Trichostatin A (or Nicotinamide for SIRTs) to stop the reaction and to generate fluorescent color. • 6. The fluorescence that was generated was detected with excitation (Ex) at […] and emission (Em) at 460 nM by the EnVision Multilabel Plate Reader (PerkinElmer®, Santa Clara, CA, USA). • 7. IC50 values, presented in Table 1, were derived from a 10-dose response curve.

[5] = target: T5, HDAC2 (Homo sapiens, UniProt Q92769); experiment: as above; details: 10-dose response curve; read-out: Compound IC50 HDAC2
T5 construct: purchased Reaction Biology
Procedure: as §1, §2, §3, §4, §6

[6] = target: T6, HDAC1 (Homo sapiens, UniProt Q13547); experiment: as above; details: 10-dose response curve; read-out: Compound IC50 HDAC1
T6 construct: purchased Reaction Biology
Procedure: as §1, §2, §3, §4, §6

T4 sequence (O15379 whole entry): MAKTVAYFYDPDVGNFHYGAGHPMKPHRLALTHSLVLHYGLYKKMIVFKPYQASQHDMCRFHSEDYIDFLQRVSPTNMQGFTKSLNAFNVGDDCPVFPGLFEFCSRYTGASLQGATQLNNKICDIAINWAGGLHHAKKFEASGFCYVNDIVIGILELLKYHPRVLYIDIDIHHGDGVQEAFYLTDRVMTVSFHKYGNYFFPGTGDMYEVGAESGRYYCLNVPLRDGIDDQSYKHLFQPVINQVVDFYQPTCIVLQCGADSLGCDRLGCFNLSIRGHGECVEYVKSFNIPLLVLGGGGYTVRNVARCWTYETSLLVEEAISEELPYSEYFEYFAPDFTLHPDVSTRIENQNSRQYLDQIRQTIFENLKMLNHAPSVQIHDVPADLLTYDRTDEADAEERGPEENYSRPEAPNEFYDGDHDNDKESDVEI
T4 sequence (Q9Y618 395-489 partner limits assumed): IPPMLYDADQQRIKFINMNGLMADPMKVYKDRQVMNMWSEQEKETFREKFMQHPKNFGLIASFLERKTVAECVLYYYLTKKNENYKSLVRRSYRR
T2 sequence (Q9UQL6 whole entry): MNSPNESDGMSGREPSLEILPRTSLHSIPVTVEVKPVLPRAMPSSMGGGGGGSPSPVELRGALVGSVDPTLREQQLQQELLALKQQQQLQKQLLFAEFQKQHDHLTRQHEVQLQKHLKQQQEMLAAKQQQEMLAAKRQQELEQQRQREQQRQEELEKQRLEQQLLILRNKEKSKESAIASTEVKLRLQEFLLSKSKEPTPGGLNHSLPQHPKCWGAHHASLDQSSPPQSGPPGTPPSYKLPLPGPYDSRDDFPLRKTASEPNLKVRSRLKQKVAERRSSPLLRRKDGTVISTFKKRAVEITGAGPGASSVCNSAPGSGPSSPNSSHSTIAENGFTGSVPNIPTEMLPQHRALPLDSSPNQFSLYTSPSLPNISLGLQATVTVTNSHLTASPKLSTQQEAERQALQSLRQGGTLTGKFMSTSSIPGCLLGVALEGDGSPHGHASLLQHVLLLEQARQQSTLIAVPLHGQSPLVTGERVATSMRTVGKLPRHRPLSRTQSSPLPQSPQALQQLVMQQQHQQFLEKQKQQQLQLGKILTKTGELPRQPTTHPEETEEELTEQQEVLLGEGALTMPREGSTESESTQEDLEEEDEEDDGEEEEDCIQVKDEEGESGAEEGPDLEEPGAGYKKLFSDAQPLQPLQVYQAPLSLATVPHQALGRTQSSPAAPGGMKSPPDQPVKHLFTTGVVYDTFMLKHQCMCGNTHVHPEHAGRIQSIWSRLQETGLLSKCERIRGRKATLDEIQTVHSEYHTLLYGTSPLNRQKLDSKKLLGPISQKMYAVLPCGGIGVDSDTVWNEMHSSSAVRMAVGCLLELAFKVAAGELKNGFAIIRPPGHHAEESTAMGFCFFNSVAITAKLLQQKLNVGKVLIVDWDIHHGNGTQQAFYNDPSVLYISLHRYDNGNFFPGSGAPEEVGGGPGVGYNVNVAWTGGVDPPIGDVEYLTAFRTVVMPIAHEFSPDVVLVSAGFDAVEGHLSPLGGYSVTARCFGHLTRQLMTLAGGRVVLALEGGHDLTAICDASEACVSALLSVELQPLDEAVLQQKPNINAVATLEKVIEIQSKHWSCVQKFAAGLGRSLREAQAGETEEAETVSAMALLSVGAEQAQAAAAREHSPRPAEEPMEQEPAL
T5 sequence (Q92769 whole entry): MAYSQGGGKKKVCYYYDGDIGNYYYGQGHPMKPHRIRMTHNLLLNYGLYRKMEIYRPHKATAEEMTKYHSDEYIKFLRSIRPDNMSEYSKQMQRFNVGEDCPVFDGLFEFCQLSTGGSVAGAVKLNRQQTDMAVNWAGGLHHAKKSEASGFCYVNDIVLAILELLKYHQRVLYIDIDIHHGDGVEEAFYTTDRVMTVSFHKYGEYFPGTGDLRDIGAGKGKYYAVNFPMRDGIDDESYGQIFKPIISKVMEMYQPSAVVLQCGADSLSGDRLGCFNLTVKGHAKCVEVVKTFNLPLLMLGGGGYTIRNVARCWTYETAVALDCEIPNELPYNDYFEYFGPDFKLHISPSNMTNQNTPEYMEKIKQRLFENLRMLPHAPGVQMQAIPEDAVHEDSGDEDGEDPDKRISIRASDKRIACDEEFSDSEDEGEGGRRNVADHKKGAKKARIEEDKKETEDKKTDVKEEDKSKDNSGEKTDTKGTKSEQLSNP
T6 sequence (Q13547 whole entry): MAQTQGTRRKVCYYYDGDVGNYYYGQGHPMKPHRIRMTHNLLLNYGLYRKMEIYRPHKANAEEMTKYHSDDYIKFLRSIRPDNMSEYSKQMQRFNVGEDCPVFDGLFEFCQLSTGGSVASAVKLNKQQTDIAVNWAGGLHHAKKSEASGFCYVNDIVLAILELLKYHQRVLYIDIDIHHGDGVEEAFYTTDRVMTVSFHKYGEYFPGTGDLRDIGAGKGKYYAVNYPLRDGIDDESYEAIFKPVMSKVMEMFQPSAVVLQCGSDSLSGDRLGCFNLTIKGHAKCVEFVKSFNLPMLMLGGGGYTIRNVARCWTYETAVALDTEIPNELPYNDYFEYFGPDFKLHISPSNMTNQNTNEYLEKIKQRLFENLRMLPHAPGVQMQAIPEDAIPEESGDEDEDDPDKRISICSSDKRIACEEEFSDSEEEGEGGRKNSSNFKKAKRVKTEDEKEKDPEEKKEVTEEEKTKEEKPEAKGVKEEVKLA

pIC50 [1]	pIC50 [2]	pIC50 [3]	pIC50 [4]	pIC50 [5]	pIC50 [6]	SMILES
7.40	5.11	6.40	5.46	4.84	5.36	CN(C(=O)CCCCCCCNc1cccc2c1C(=O)N(C1CCC(=O)NC1=O)C2=O)c1ccc(NC(=O)CCCCCCC(=O)NO)cc1 (stereo not drawn) [Compound 3, N^1-(4-(8-((2-(2,6-dioxopiperidin-3-yl)-1,3-dioxoisoindolin-4-yl)amino)-N-methyloctanamido)phenyl)-N^8-hydroxyoctanediamide]
7.31	5.24	6.21	5.84	5.61	5.98	CN(C(=O)CCCNc1cccc2c1C(=O)N(C1CCC(=O)NC1=O)C2=O)c1ccc(NC(=O)CCCCCCC(=O)NO)cc1 (stereo not drawn) [Compound 1, N^1-(4-(4-((2-(2,6-dioxopiperidin-3-yl)-1,3-dioxoisoindolin-4-yl)amino)-N-methylbutanamido)phenyl)-N^8-hydroxyoctanediamide]
